# Test results published in patent publication US8802678B2, “Carbonylated (aza) cyclohexanes as dopamine D3 receptor ligands” (Bioprojet, priority 2006, dated 2014).
row,melting point [°C],SMILES
1,210,"N#CCC(=O)N[C@H]1CC[C@H](CCN2CCN(c3ccc4c(c3)CCC4)CC2)CC1 [Example 212, 2-Cyano-N-{4-[2-(4-indan-5-ylpiperazin-1-yl)ethyl]cyclohexyl}acetamide]"
2,168,"N#CCC(=O)N[C@H]1CC[C@H](CCN2CCN(c3cccc(Cc4ccccc4)c3)CC2)CC1 [Example 216, N-(4-{2-[4-(3-Benzylphenyl)-piperazin-1-yl]ethyl}cyclohexyl)-2-cyanoacetamide]"
3,166,"Cc1cccc(N2CCN(CC[C@H]3CC[C@H](NC(=O)CC#N)CC3)CC2)c1C [Example 219, 2-Cyano-N-(4-{2-[4-(2,3-dimethylphenyl)piperazin-1-yl]ethyl}cyclohexyl)acetamide]"
4,150,"Cc1ccccc1N1CCN(CC[C@H]2CC[C@H](NC(=O)CC#N)CC2)CC1 [Example 220, 2-Cyano-N-{4-[2-(4-o-tolylpiperazin-1-yl)ethyl]cyclohexyl}acetamide]"
5,171 to 173,"COc1ccc(OC)c(N2CCN(CC[C@H]3CC[C@H](NC(=O)CC#N)CC3)CC2)c1 [Example 221, 2-Cyano-N-(4-{2-[4-(2,5-dimethoxyphenyl)piperazin-1-yl]ethyl}cyclohexyl)acetamide]"
6,172 to 174,"CC(=O)CCC(=O)N[C@H]1CC[C@H](CCN2CCN(c3cc(C(F)(F)F)cc(C(F)(F)F)c3)CC2)CC1 [Example 222, 4-Oxopentanoic acid (4-{2-[4-(3,5-bis-trifluoromethylphenyl)piperazin-1-yl]ethyl}cyclohexyl)amide]"
7,174,"Cc1ccc(Cl)c(N2CCN(CC[C@H]3CC[C@H](NC(=O)CC#N)CC3)CC2)c1 [Example 227, N-(4-{2-[4-(2-Chloro-5-methylphenyl)piperazin-1-yl]ethyl}cyclohexyl)-2-cyanoacetamide]"
8,182 to 184,"N#CCC(=O)N[C@H]1CC[C@H](CCN2CCN(c3cc(Cl)ccc3Cl)CC2)CC1 [Example 228, 2-Cyano-N-(4-{2-[4-(2,5-dichlorophenyl)piperazin-1-yl]ethyl}cyclohexyl)acetamide]"
9,162,"Cc1c(N2CCN(CC[C@H]3CC[C@H](NC(=O)CCCC#N)CC3)CC2)cccc1C(F)(F)F [Example 230, 4-Cyano-N-(4-{2-[4-(2-methyl-3-trifluoromethylphenyl)piperazin-1-yl]ethyl}cyclohexyl)butanamide]"
10,168,"CC(C)(C)c1cc(N2CCN(CC[C@H]3CC[C@H](NC(=O)CC#N)CC3)CC2)cc(C(C)(C)C)c1 [Example 232, 2-Cyano-N-(4-{2-[4-(3,5-di-tert-butylphenyl)piperazin-1-yl]ethyl}cyclohexyl)acetamide]"
11,142,"N#CCCCC(=O)N[C@H]1CC[C@H](CCN2CCN(c3ccccc3Cl)CC2)CC1 [Example 233, N-(4-{2-[4-(2-Chlorophenyl)piperazin-1-yl]ethyl}cyclohexyl)-4-cyanobutanamide]"

# Further lines, the molecule ahead of its results:
row,SMILES,melting point [°C]
1,"N#CCC(=O)N[C@H]1CC[C@H](CCN2CCN(c3ccc4c(c3)CCCC4)CC2)CC1 [Example 211, 2-Cyano-N-(4-{2-[4-(5,6,7,8-tetrahydronaphthalen-2-yl)piperazin-1-yl]ethyl}cyclohexyl)acetamide]",200
2,"N#CCCC(=O)N[C@H]1CC[C@H](CCN2CCN(c3cc(C(F)(F)F)cc(C(F)(F)F)c3)CC2)CC1 [Example 213, N-(4-{2-[4-(3,5-Bistrifluoromethylphenyl)piperazin-1-yl]ethyl}cyclohexyl)-3-cyanopropanamide]",158 to 159
3,"N#CCCC(=O)N[C@H]1CC[C@H](CCN2CCN(c3cccc(C(F)(F)F)c3F)CC2)CC1 [Example 214, 3-Cyano-N-(4-{2-[4-(2-fluoro-3-trifluoromethylphenyl)piperazin-1-yl]ethyl}cyclohexyl)propanamide trans/cis 95/5]",153
4,"COc1c(Cl)cccc1N1CCN(CC[C@H]2CC[C@H](NC(=O)CC#N)CC2)CC1 [Example 215, N-(4-{2-[4-(3-Chloro-2-methoxyphenyl)piperazin-1-yl]ethyl}cyclohexyl)-2-cyanoacetamide]",122
5,"CCOC(=O)Nc1cccc(N2CCN(CC[C@H]3CC[C@H](NC(=O)CC#N)CC3)CC2)c1 [Example 217, [3-(4-{2-[4-(2-Cyanoacetylamino)cyclohexyl]ethyl}piperazin-1-yl)phenyl] carbamic acid ethyl ester]",170
6,"N#CCC(=O)N[C@H]1CC[C@H](CCN2CCC(c3cccc(C(F)(F)F)c3)CC2)CC1 [Example 218, 2-Cyano-N-(4-{2-[4-(3-trifluoromethylphenyl)piperidin-1-yl]ethyl}cyclohexyl)acetamide]",129
7,"CN(C)CCCC(=O)N[C@H]1CC[C@H](CCN2CCN(c3cccc(C(F)(F)F)c3)CC2)CC1 [Example 223, 4-Dimethylamino-N-(4-{2-[4-(3-trifluoromethylphenyl)piperazin-1-yl]ethyl}cyclohexyl)butanamide]",128
8,"O=C(COc1ccc(F)cc1)N[C@H]1CC[C@H](CCN2CCN(c3cccc(C(F)(F)F)c3)CC2)CC1 [Example 224, 2-(4-Fluorophenoxy)-N-(4-{2-[4-(3-trifluoromethylphenyl)-piperazin-1-yl]ethyl}cyclohexyl)-acetamide]",119
9,"N#CCC(=O)N[C@H]1CC[C@H](CCN2CCN(c3cc(F)ccc3F)CC2)CC1 [Example 226, 2-Cyano-N-(4-{2-[4-(2,5-difluorophenyl)piperazin-1-yl]ethyl}cyclohexyl)acetamide]",198
10,"N#CCCCC(=O)N[C@H]1CC[C@H](CCN2CCN(c3cccc(Cl)c3)CC2)CC1 [Example 229, N-(4-{2-[4-(3-Chlorophenyl)-piperazin-1-yl]ethyl}cyclohexyl)-4-cyanobutanamide]",171 to 173
11,"CC(=O)CCC(=O)N[C@H]1CC[C@H](CCN2CCN(c3cccc(C(F)(F)F)c3F)CC2)CC1 [Example 231, 4-Oxopentanoic acid (4-{2-[4-(2-fluoro-3-trifluoromethyl-phenyl)piperazin-1-yl]ethyl}cyclohexyl)amide]",178
12,"Cc1cccc(N2CCN(CC[C@H]3CC[C@H](NC(=O)CCCC#N)CC3)CC2)c1 [Example 234, 4-Cyano-N-{4-[2-(4-m-tolylpiperazin-1-yl)ethyl]cyclohexyl}butanamide]",150
13,"Cc1cccc(N2CCN(CC[C@H]3CC[C@H](NC(=O)CC(F)(F)F)CC3)CC2)c1 [Example 235, 3,3,3-Trifluoro-N-{4-[2-(4-m-tolylpiperazin-1-yl)ethyl]cyclohexyl}propanamide]",170
14,"CSc1ccccc1N1CCN(CC[C@H]2CC[C@H](NC(=O)CCCC#N)CC2)CC1 [Example 236, 4-Cyano-N-(4-{2-[4-(2-methylsulfanylphenyl)piperazin-1-yl]ethyl}cyclohexyl)butanamide]",130
15,"N#CCC(=O)N[C@H]1CC[C@H](CCN2CCN(c3cccc4cccnc34)CC2)CC1 [Example 237, 2-Cyano-N-{4-[2-(4-quinolin-8-ylpiperazin-1-yl)ethyl]-cyclohexyl}acetamide]",225
16,"CSc1cccc(N2CCN(CC[C@H]3CC[C@H](NC(=O)CCCC#N)CC3)CC2)c1 [Example 238, 4-Cyano-N-(4-{2-[4-(3-methylsulfanylphenyl)piperazin-1-yl]ethyl}cyclohexyl)butanamide]",127
